Source: patent publication US9028887B2, “Method improve spatial memory via pterostilbene administration” (The United States of America, as represented by the …, priority 2007, dated 2015)

Legend:
[1] = test system: M1-transfected COS-7 cells; experiment: Calcium recovery in M1-transfected COS-7 cells after dopamine treatment and oxotremorine-induced depolarization; type: cell-based, African green monkey; settings: 10 μg/ml pre-treatment 45 min, then 1 mM dopamine 4 hours; 750 μM oxotremorine depolarization
Method: COS-7 cells, a cell line derived from African green monkey kidney, were grown in Dulbecco's Modified Eagle's Medium (D-MEM) supplemented with 10% fetal bovine serum (FBS) and containing 100 U/ml penicillin and 100 μg/ml streptomycin sulfate. Twenty four hours prior to transfection, cells were harvested with trypsin, counted, and plated on […] tissue culture plates at 5×10^6 cells/plate. Cells were transiently transfected with rat muscarinic receptor subtype 1 DNA by the DEAE-dextran method. After transfection, cells were incubated 2.5 hours in growth medium containing 80 μM chloroquine to minimize degradation of the DNA. Transfected cells were then maintained in growth medium for 48 hours, harvested with trypsin, plated to coverslips in 35 mm plates for calcium imaging, and incubated overnight.
Dis. 6:403-411, and hereby incorporated by reference. The BB extract and stilbenes were dissolved in growth media and cells were subsequently incubated for 45 minutes at 37° C. with the treated growth medium, followed by dopamine administration for 4 hours. Following these incubations, the cells were washed three times with extract-free growth medium prior to testing.
Calcium imaging was carried out using a Medical Systems Corp. open perfusion micro-incubator (37° C.) with temperature control that was mounted on the stage of a Nikon Eclipse TE200U microscope and illuminated with a fluorescent light source. Transfected cells were loaded with Fura-2/acetoxymethyl ester (2 μM) in loading medium (99% DMEM 1% FES) for 40 minutes at 37° C. with 5% CO2.
Real time analyses of calcium flux prior to and following 750 μM oxotremorine-induced depolarization were then carried out using Simple PCI software (Compix, Inc. Mars, Pa.). Response and recovery were then determined for each sample. […] Recovery was determined by assessing the time (within 300 sec) for the Ca^2+ levels to return to 20% of the increase following depolarization in the cells that responded. Data was analyzed by Kruskal-Wallis one-way analysis of variance and Mann-Whitney U tests.

[2] = Pterostilbene in subject hippocampal tissue by GC-MS; type: in vivo, rat
Method: Hippocampal brain tissue was extracted from subjects that were euthanized 2-3 weeks following Morris Water Maze testing. The tissue samples were stored at −80° C. and thawed in ice prior to extraction. Tissues were homogenized in 500 μL of phosphate buffer (pH 7.4) then centrifuged (7000 g, 4° C., 15 min). The supernatant was collected and homogenization was repeated. The combined supernatant was extracted with ethyl acetate (500 μL×2). The ethyl acetate extract was dried under a stream of nitrogen.
The dried extract was treated with 30 μL of N,O-bis[trimethylsilyl]trifluoroacetamide:dimethylformamide (BSTFA:DMF, 1:1; Pierce Biotechnology, Inc., Rockford, Ill.) and heated at 70° C. for 40 min. The derivatized sample was used for analysis of pterostilbene by gas chromatography-mass spectrometry (GC-MS). GC-MS was performed on a JEOL GCMate II Instrument (JEOL USA Inc., Peabody, Mass.) using as a J&W DB-5 capillary column (0.25 mm internal diameter, 0.25 μm film thickness, 30 m length; Agilent Technologies, Foster City, Calif.). […] The carrier gas was ultrahigh purity helium, at 1 mL/min flow rate. […] Pterostilbene was determined and quantified from a reconstructed ion chromatogram using m/z 328, 313, 297 and 147. Quantitation was performed from calibration curve of a standard sample of pterostilbene (retention time, 12.5 min). […]

cyclooxygenase-1 = cyclooxygenase-1 (Homo sapiens, UniProt P23219); settings: Rimando et al., 2002; cited from earlier work
cyclooxygenase-1, sequence (P23219 24-599, species assumed): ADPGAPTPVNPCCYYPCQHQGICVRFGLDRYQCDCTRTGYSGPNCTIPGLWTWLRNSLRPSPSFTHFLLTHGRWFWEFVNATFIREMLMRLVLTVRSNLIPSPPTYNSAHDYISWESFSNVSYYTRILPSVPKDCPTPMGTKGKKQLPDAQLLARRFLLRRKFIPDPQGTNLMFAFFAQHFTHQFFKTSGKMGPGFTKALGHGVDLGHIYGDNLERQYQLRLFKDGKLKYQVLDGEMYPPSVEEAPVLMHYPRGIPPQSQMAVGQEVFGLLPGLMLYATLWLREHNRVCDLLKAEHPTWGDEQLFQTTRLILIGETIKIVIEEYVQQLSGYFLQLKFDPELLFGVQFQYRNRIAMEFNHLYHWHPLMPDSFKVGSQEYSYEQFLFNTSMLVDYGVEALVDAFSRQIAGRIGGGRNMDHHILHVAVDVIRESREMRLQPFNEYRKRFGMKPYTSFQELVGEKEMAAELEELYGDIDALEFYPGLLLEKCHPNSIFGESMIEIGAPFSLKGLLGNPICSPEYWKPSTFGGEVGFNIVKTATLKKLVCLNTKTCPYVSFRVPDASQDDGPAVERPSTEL

[3] = molecular target: T1, peroxisome proliferator-activated alpha isoform, (PPARα) (Homo sapiens, UniProt Q07869); settings: Rimando et al., 2005; cited from earlier work
T1 sequence (Q07869 1-468): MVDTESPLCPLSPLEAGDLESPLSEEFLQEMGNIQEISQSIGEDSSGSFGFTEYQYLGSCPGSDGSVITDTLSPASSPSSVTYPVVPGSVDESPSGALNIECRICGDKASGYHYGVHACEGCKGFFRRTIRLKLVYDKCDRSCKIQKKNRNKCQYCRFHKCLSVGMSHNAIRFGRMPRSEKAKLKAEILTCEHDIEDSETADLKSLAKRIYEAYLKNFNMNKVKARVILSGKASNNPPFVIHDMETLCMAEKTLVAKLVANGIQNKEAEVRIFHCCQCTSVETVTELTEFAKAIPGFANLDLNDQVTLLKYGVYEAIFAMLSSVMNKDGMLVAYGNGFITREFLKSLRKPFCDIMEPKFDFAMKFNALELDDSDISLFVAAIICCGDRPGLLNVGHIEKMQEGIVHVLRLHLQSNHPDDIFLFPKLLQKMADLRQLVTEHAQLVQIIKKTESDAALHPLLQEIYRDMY

weanling male F344 rats = settings: Suh et al., 2007; cited from earlier work
[4] = test system: inducible nitric oxide synthase (iNOS); settings: HT-29 human adenocarcinoma cell lines; Suh et al., 2007; cited from earlier work
[5] = compared with resveratrol; Rimando et al., 2002; Stivala et al., 2001; cited from earlier work

COc1cc(/C=C/c2ccc(O)cc2)cc(OC)c1 [pterostilbene, trans-3,5-dimethoxy-4′-hydroxystilbene]
protection against dopamine-induced decreases in Ca2+ Recovery [1]: protected against the dopamine-induced decreases in Recovery
hippocampal pterostilbene ([2]; high dose diet 0.016% (10 mg/kg), 12-13 weeks on diet): 1.352±0.465 ng/tissue sample
hippocampal pterostilbene detectability ([2]; low dose diet 0.004% (2.5 mg/kg)): only detectable in the high dose pterostilbene group
inhibition of cyclooxygenase-1 (cyclooxygenase-1): moderate inhibition
activation of PPARα [3]: identified to activate
azoxymethane-induced colonic aberrant crypt foci growth (weanling male F344 rats): suppressed azoxymethane-induced colonic aberrant crypt foci growth
expression of iNOS [4]: inhibits the expression of inducible nitric oxide synthase (iNOS)
antioxidant activity [5]: antioxidant activity similar to that of resveratrol
